{"source": "patent US20100190845A1", "about": "“METHOD OF TREATING CANCER USING ATP SYNTHASE INHIBITORS” (NATIONAL TAIWAN UNIVERSITY, priority 2009, published 2010)", "key": {"[1]": {"assay": "Viable cell number counting using trypan blue", "format": "cell-based", "details": "human; IMR-90 normal lung cells, same time points; read-out: cell viability rate", "from_the_text": "(§1) Apart from the traditional role in ATP production, ATP synthase may play critical roles in tumor cell metastases. Human lung adenocarcinoma cell lines CL1-1 and CL1-5 with different metastasis were obtained from the American Type Culture Collection (Manassas, Va.), and human normal lung cell line IMR-90 was obtained from Institute of Biomedical Sciences, Academia Sinica. The CL1-5 cell line is highly metastatic lung cancer cells, but the CL1-1 cell line is low metastatic lung cancer cells.\n(§2) Human lung adenocarcinoma cell lines were maintained in DMEM at 37° C. with 5% CO2 (Gibco, Carlsbad, Calif., USA), 5% fetal bovine serum (Gibco), 50 units/mL penicillin, and 50 μg/mL streptomycin (Gibco). IMR-90 cells were culture in DMEM (Gibco), 0.01 mg/mL Insulin, 5 μg/mL Hydrocortisone.\n(§3) As shown in FIG. 9 to FIG. 11, cell proliferation assays were in the presence of three F1-targeting H-ATP synthase inhibitors: aurovertin B, resveratol, and piceatannol. […] Thus, aurovertin B caused significant apotosis in CL1-1 and CL1-5 cells."}, "[2]": {"system": "CL1-1 lung cancer cells", "assay": "cells", "format": "cell-based, human", "details": "for pIC50: Homo sapiens", "from_the_text": "as §1, §2, §3"}, "[3]": {"system": "CL1-5 lung cancer cells", "assay": "cells", "format": "cell-based, human", "details": "for pIC50: Homo sapiens", "from_the_text": "as §1, §2, §3"}, "[4]": {"system": "MCF-7 breast cancer cells", "assay": "MTT assay, cell viability", "format": "cell-based, human", "details": "MCF-7, 48 hours", "procedure": "as §2, with “breast cancer cell lines, MCF-7, MDA-MB231, T47D and human normal breast cell line MCF-10A, were obtained from the American Type Culture Collection (Manassas, Va.). Human breast cancer” for “lung adenocarcinoma”, “MCF-10A” for “IMR-90”\n(§4) Cytotoxic effects on the growth and viability of cells were determined using MTT (3(4,5-dimethylthiazol-2-yl)-2,5-diphenyltetrazolium bromide, a tetrazole) assay. 10^4 cells/mL were plated in 96-well plates and allowed to attach for 24 hours. Cells were treated with […] of aurovertin B, resveratrol and piceatannol for 48 hours. At the end of the incubation period, MTT reagent (10 μL) was added to each 100 μL of culture. After incubation for 4 hr at 37° C., the formed water insoluble formazan dye was solubilized by adding 100 μL of DMSO to the culture wells. The plates were further incubated for 15 min at room temperature, and optical density (OD) of the wells was determined using ELISA microplate reader at a test wavelength of 570 nm. All experiments were performed in triplicates."}, "[5]": {"system": "normal breast cell line MCF-10A", "assay": "MTT assay, cell viability", "format": "cell-based, human", "details": "MCF-10A, under these concentrations", "procedure": "as §2, with “breast cancer cell lines, MCF-7, MDA-MB231, T47D and human normal breast cell line MCF-10A, were obtained from the American Type Culture Collection (Manassas, Va.). Human breast cancer” for “lung adenocarcinoma”, “MCF-10A” for “IMR-90”\nas §4"}, "[6]": {"assay": "MTT assay, cell viability", "format": "cell-based, human", "details": "human; MCF-10A normal breast cells, same time points; read-out: cell viability rate", "procedure": "as §2, with “breast cancer cell lines, MCF-7, MDA-MB231, T47D and human normal breast cell line MCF-10A, were obtained from the American Type Culture Collection (Manassas, Va.). Human breast cancer” for “lung adenocarcinoma”, “MCF-10A” for “IMR-90”\nas §4"}, "[7]": {"system": "MDAMB231 breast cancer cell line", "assay": "MTT assay, cell viability", "format": "cell-based", "details": "Homo sapiens, MDA-MB-231, MDAMB231, 48 hours", "procedure": "as §2, with “breast cancer cell lines, MCF-7, MDA-MB231, T47D and human normal breast cell line MCF-10A, were obtained from the American Type Culture Collection (Manassas, Va.). Human breast cancer” for “lung adenocarcinoma”, “MCF-10A” for “IMR-90”\nas §4"}, "[8]": {"system": "T47D breast cancer cell line", "assay": "MTT assay, cell viability", "format": "cell-based", "details": "Homo sapiens, 48 hours", "procedure": "as §2, with “breast cancer cell lines, MCF-7, MDA-MB231, T47D and human normal breast cell line MCF-10A, were obtained from the American Type Culture Collection (Manassas, Va.). Human breast cancer” for “lung adenocarcinoma”, “MCF-10A” for “IMR-90”\nas §4"}, "[9]": {"system": "MCF-7 cells", "assay": "Cell cycle analysis by flow cytometry", "format": "cell-based, human", "details": "48 hours (control 63.1%)", "procedure": "For the determination of cell cycle phase distribution, 3×10^5 MCF-7 cells were first exposed to various concentrations of aurovertin B in DMEM with 10% FBS for 48 hr by flow cytometric analysis. The cells were trypsinized, collected and fixed in 70% cold ethanol (−20° C.) overnight. After washing twice with PBS, cells were resuspended in PBS. RNase A (1 mg/mL) and PI (10 μg/mL) were added to the fixed cells for 30 min. The DNA content of cells was then analyzed with a FACSCanto instrument (Becton Dickinson, San Jose, Calif., USA). The percentage of cells in different phases of the cell cycle was calculated by MultiCycle (DeNovo software, Ontario, Canada)."}, "[10]": {"system": "MCF-7 cells", "assay": "Annexin V-FITC/PI analysis of apoptosis", "format": "cell-based, human", "details": "MCF-7, 0.05-10 μM, 48 hours", "procedure": "Flow cytometric analysis was performed to identify and quantify the apoptotic cells by using Annexin V-FITC/PI (propidium iodide) apoptosis detection kit (Santa Cruz Biotechnology, Santa Cruz, Calif., USA). […] After incubation, floating and adherent cells were harvested. Cells were washed carefully with cold PBS at 4° C. Cell pellets were resuspended in […] of binding buffer. Annexin-V FITC (0.2 μg/100 μL) and PI (10 μg/mL) was added to the cells and left for incubation in the dark for 15 min at room temperature. All data were acquired by flow cytometry using a FACSCanto cytometer (Becton Dickinson, San Jose, Calif., USA). The flow cytometric analysis was performed using FCS Express 3.0 (DeNovo software)."}, "[11]": {"system": "HeLa cervical cancer cells", "details": "Acta Biochimica Polonica 2004; cited from earlier work"}, "[12]": {"system": "MCF-7 cells", "assay": "DAPI staining of nuclear morphology", "format": "cell-based, human", "details": "MCF-7, 48 h, IC50 concentration", "procedure": "After treatment for 48 h with DMSO (control) or aurovertin B (at their respective IC50 concentrations), cells were fixed in 4% paraformaldehyde for 15 min and stained with DAPI (2 μg/mL in PBS) for 15 min at 37° C. to detect apoptotic bodies (Sigma, St. Louis, Mo., USA). Results were determined by visual observation of nuclear morphology via fluorescence microscopy."}}, "note": "pIC50: −log10 of the molar value. Entries after “also recorded” stand apart in the source; their conditions may differ. Read-outs that look alike come from different tables or passages of the source."}
{"smiles": "Oc1ccc(C=Cc2cc(O)cc(O)c2)cc1", "note": "[resveratrol]", "values": [{"measurement": "viability", "setting": "[1]", "result": "≤ 60", "unit": "%"}, {"measurement": "pIC50", "setting": "[2]; CL-11, CL1-1, low metastatic lung cancer cells, read-out: IC50", "result": 5.00}, {"measurement": "pIC50", "setting": "[3]; CL1-5, highly metastatic lung cancer cells, read-out: IC50", "result": "~5.30"}]}
{"smiles": "CC[C@H]1OC2(C)C(OC(C)=O)[C@@]1(C)OC(/C=C/C=C/C=C/c1oc(=O)cc(OC)c1C)[C@@H]2O", "note": "(stereo partly drawn) [aurovertin B]", "values": [{"measurement": "pIC50", "setting": "[4]; Homo sapiens, MCF7, 48 h", "result": 7.00}, {"measurement": "pIC50", "setting": "[4]", "result": 7.05}, {"measurement": "cytotoxicity to normal cells", "setting": "[5]", "result": "no apparent cytotoxicity"}, {"measurement": "viability at 48 h", "setting": "[6]", "result": "≥ 80", "unit": "%"}, {"measurement": "pIC50", "setting": "[7]", "result": 5.26}, {"measurement": "pIC50", "setting": "[8]", "result": 6.05}, {"measurement": "percentage of cells in G0/G1 phase", "setting": "[9]; MCF-7, 0.1 μM", "result": 66.5, "unit": "%"}, {"measurement": "percentage of cells in G0/G1 phase", "setting": "[9]; MCF-7, 1 μM", "result": 78.5, "unit": "%"}, {"measurement": "percentage of cells in G0/G1 phase", "setting": "[9]; MCF-7, 5 μM", "result": 81.2, "unit": "%"}, {"measurement": "viability", "setting": "[1]", "result": "≥ 60", "unit": "%"}, {"measurement": "early and late apoptotic/necrotic cells", "setting": "[10]", "result": "dose-dependent increase in both early and late apoptotic/necrotic cells"}, {"measurement": "release of cytochrome c and apoptosis", "setting": "[11]", "result": "didn't affect the release of cytochrome c and apoptosis; also recorded: can't cause apotosis"}, {"measurement": "morphological changes of the nuclei", "setting": "[12]", "result": "condensation and shrinkage of nuclei"}, {"measurement": "pIC50", "setting": "[2]; CL1-1", "result": "6.30 to 7.00"}, {"measurement": "pIC50", "setting": "[3]; CL1-5, CL1-5, highly metastatic lung cancer cells", "result": "~6.30"}]}
{"smiles": "Oc1cc(O)cc(/C=C/c2ccc(O)c(O)c2)c1", "note": "[piceatannol]", "values": [{"measurement": "viability", "setting": "[1]", "result": 60, "unit": "%"}, {"measurement": "cell viability rate", "setting": "[2]; CL1-1", "result": "≥ 80", "unit": "%"}, {"measurement": "cell viability rate", "setting": "[3]; CL1-5", "result": "≥ 80", "unit": "%"}]}
